Assay [1] in a line: Binding affinity to amyloid beta (1 to 40) aggregates assessed as change in fluorescence intensity at 10 uM relative to control.
A short description of assay [2]: Apparent binding affinity to amyloid beta (1 to 40) aggregates. The conditions noted are these: read-out: Kd(app).
For assay [3], the species on record is Mus musculus. As to the kind of experiment: Binding affinity to amyloid beta plaque in APP/PS1 transgenic mouse brain tissue by thioflavin staining-based fluorescence analysis.
The species entered for assay [4] is Mus musculus. As to the kind of experiment: Binding affinity to amyloid beta plaque in mouse brain tissue by thioflavin staining-based fluorescence analysis.
The target in assay [5] is Amyloid-beta precursor protein (Homo sapiens) (UniProt P05067). Kind of assay: Binding affinity to unlabeled amyloid beta (1 to 42) expressed in human SH-SY5Y cells at 10 uM after 10 mins thioflavin staining-based by fluorescence microscopic analysis.

Each structure is given as a SMILES string. Activity calls are given as the source filed them. The rule behind the calls is not given here.

Sequence of Amyloid-beta precursor protein (Homo sapiens) (P05067 whole entry): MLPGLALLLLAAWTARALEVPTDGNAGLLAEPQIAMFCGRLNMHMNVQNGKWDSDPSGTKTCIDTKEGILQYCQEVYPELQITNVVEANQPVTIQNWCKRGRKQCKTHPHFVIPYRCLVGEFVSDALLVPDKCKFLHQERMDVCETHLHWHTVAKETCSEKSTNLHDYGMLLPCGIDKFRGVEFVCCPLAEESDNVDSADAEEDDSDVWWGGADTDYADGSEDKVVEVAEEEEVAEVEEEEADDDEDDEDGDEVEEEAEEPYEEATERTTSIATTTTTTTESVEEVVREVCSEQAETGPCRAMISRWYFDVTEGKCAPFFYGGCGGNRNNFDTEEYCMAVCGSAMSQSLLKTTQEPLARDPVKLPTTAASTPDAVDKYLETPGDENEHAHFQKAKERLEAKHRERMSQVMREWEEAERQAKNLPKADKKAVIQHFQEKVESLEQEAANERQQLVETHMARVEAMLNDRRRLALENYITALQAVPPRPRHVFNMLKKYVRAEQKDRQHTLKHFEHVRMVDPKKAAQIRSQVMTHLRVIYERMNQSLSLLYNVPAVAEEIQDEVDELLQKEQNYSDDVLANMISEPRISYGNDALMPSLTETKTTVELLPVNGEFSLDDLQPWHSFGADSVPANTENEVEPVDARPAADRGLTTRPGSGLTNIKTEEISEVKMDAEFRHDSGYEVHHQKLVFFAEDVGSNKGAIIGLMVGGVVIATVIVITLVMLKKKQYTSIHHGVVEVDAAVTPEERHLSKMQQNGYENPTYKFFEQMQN

`O=c1c(Cl)c(Cl)cnn1/C=C/c1ccccc1[N+](=O)[O-]`: in assay [1], the fold change (FC) amounted to 4.12.

With `COc1cccc(/C=C/n2ncc(Cl)c(Cl)c2=O)c1`, the fold change (FC) in assay [1] was found to be 11.1. The Kd in assay [2] was found to be 3.48 µM.

In the case of `COc1cc(/C=C/n2ncc(Cl)c(Cl)c2=O)cc(OC)c1`, the fold change (FC) in assay [1] came to 5.37.

Take `CN(C)c1ccc(/C=C/n2ncc(Cl)c(Cl)c2=O)cc1`: in assay [1], the fold change (FC) was found to be 40.8. The Kd in assay [2] stood at 1.84 µM. The outcome in assay [3] and in assay [5] was Active. Besides, in assay [4], the result was inactive. For the compound `O=c1c(Cl)c(Cl)cnn1/C=C/c1ccc(Cl)cc1`, the fold change (FC) in assay [1] was 3.03. In the case of `COc1cc(OC)c(OC)cc1/C=C/n1ncc(Cl)c(Cl)c1=O`, the fold change (FC) in assay [1] is 3.95. The same measure, in the same setting: to `COc1ccccc1/C=C/n1ncc(Cl)c(Cl)c1=O` belongs 8.24; to `COc1ccc(OC)c(/C=C/n2ncc(Cl)c(Cl)c2=O)c1`, 3.42. As for `Cc1ccc2c(c1)sc(-c1ccc(N(C)C)cc1)[n+]2C`, the outcome in assay [4] was inactive. With `COc1ccc(/C=C/n2ncc(Cl)c(Cl)c2=O)cc1`, the fold change (FC) in assay [1] is 19.8. For the same compound, the Kd in assay [2] turned out to be 2.57 µM.

In the case of `COc1ccc(/C=C/n2ncc(Cl)c(Cl)c2=O)c(OC)c1OC`, the fold change (FC) in assay [1] came out at 26.8. For the same compound, the Kd in assay [2] amounted to 4.24 µM. In the case of `O=c1c(Cl)c(Cl)cnn1/C=C/c1cccc([N+](=O)[O-])c1`, in assay [1], the fold change (FC) worked out at 2.12. On the same count and under the same terms, to `N#Cc1ccc(/C=C/n2ncc(Cl)c(Cl)c2=O)cc1` belongs 2.94. On the same count and under the same terms, as for `COc1ccc(/C=C/n2ncc(Cl)c(Cl)c2=O)cc1OC`, the figure is 3.52; as for `O=c1c(Cl)c(Cl)cnn1/C=C/c1ccc(-c2ccccc2)cc1`, 1.92; as for `COC(=O)c1ccc(/C=C/n2ncc(Cl)c(Cl)c2=O)cc1`, 2.07. As for `COc1cc(OC)c(/C=C/n2ncc(Cl)c(Cl)c2=O)c(OC)c1`, in assay [1], the fold change (FC) stood at 11.7. Further, the Kd in assay [2] is 17.6 µM. `O=c1c(Cl)c(Cl)cnn1/C=C/c1ccc(I)cc1`: the fold change (FC) in assay [1] stood at 5.26.

Regarding `Cc1ccc(/C=C/n2ncc(Cl)c(Cl)c2=O)cc1`, in assay [1], the fold change (FC) is 2.81.

Take `O=c1c(Cl)c(Cl)cnn1/C=C/c1ccccc1`: the fold change (FC) in assay [1] was determined as 4.72.

As to `Nc1ccc(/C=C/n2ncc(Cl)c(Cl)c2=O)cc1`, in assay [1], the fold change (FC) is 12.2. For the same compound, the Kd in assay [2] came out at 2.95 µM. For the compound `COc1cccc(/C=C/n2ncc(Cl)c(Cl)c2=O)c1OC`, the fold change (FC) in assay [1] worked out at 15.3. In addition, in assay [2], the Kd was determined as 8.52 µM. Consider `COc1cccc(OC)c1/C=C/n1ncc(Cl)c(Cl)c1=O`, for which the fold change (FC) in assay [1] was found to be 4.53. The same measure, in the same setting: as for `O=c1c(Cl)c(Cl)cnn1/C=C/c1ccc([N+](=O)[O-])cc1`, the figure is 2.24.

On to `O=c1c(Cl)c(Cl)cnn1/C=C/c1ccc(/C=C\c2ccccc2)cc1`, for which, in assay [1], the fold change (FC) turned out to be 2.04. Same read-out and setting: to `O=c1c(Cl)c(Cl)cnn1/C=C/c1ccc(Br)cc1` belongs 2.12. As for `COc1cc(/C=C/n2ncc(Cl)c(Cl)c2=O)cc(OC)c1OC`, in assay [1], the FC is 26.1. The Kd in assay [2] was 4.14 µM. Regarding `O=c1c(Cl)c(Cl)cnn1/C=C/c1ccc(F)cc1`, the fold change (FC) in assay [1] is 5.93.

With `COc1ccc(/C=C/n2ncc(Cl)c(Cl)c2=O)c(OC)c1`, in assay [1], the fold change (FC) was determined as 11.5. In addition, the Kd in assay [2] was determined as 5.03 µM.

The values above are taken from ChEMBL document CHEMBL2029261 (Bioorg Med Chem Lett, 2012).
